Test results: patent US20250235543A1, “MODIFIED PROTEINS AND PROTEIN DEGRADERS” (Cullgen (Shanghai), Inc., priority 2021, published 2025)
Like-named read-outs stand apart in the source and are kept apart here.

Experiments:
cyclin D1 = test: Cyclin D1 percentage degradation in Calu-1 cells (immunoblotting); type: cell-based; conditions: 16 hours
Method in brief: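 Cyclin D1 degradation was assessed by western blot. Clarified lysates, obtained by RIPA lysis with inhibitors and centrifugation at 13,000 rpm, were normalized by BCA protein assay and separated by SDS-PAGE. Bands were detected with Western ECL Substrate on a Bio-Rad ChemiDoc MP Imaging system and quantified in Image Lab software to derive percentage degradation.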

CDK4 = biological target: T1, CDK4 (Homo sapiens, UniProt P11802); test: CDK4 percentage degradation in Calu-1 cells (immunoblotting); type: cell-based; conditions: for inhibition at 0.2 µM: read-out: CDK4 Degradation (200 nM)
T1 construct: endogenous in cells; host or cells: Calu-1
T1 sequence (P11802 2-303 limits assumed): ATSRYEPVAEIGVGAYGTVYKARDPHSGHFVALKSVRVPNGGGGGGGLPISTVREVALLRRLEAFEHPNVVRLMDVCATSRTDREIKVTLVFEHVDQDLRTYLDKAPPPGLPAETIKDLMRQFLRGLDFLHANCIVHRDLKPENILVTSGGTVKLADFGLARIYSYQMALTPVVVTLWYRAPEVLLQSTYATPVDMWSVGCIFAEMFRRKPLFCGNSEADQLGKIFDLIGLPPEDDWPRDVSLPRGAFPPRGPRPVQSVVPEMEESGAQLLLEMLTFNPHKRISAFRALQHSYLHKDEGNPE
T1 sequence (P24385 whole entry partner): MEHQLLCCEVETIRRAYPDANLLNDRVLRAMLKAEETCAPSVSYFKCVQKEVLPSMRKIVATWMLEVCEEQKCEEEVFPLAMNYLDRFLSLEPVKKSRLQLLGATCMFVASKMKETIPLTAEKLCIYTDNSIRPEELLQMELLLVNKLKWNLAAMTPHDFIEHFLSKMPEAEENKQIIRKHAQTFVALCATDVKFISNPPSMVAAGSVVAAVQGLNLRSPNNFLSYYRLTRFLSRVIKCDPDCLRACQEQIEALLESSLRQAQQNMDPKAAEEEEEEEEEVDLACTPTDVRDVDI
T1 sequence (Q16531 2-1140 limits assumed, further chain): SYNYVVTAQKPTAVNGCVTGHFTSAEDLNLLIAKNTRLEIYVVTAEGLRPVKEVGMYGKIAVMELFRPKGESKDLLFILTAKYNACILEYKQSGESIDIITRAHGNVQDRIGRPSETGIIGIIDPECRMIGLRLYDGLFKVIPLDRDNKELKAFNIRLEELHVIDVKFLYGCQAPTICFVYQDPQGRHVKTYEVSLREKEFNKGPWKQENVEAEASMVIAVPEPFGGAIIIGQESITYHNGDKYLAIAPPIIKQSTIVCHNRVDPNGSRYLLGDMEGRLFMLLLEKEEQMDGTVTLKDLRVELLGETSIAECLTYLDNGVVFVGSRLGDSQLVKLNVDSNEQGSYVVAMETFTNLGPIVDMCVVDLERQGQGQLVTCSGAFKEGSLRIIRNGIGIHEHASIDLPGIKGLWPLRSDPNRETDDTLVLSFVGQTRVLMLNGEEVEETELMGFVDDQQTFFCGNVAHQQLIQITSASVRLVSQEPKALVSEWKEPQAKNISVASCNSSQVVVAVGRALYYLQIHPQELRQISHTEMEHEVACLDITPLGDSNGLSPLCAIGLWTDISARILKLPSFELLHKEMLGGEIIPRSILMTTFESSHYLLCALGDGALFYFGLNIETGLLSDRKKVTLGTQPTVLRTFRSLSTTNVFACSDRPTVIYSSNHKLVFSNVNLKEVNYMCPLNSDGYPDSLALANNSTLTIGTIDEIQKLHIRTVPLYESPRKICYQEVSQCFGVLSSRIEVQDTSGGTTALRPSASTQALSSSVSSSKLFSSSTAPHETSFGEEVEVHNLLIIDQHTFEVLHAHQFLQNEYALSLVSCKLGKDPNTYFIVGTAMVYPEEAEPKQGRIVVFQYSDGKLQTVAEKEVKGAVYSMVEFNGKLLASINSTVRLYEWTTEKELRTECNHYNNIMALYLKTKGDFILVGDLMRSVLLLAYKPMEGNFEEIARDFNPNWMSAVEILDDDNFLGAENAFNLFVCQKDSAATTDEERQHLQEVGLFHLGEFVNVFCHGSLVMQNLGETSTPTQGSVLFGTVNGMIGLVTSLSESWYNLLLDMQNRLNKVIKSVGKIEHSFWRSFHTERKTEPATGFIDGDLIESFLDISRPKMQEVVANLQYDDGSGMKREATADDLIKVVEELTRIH
Method in brief: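 CDK4 degradation was measured by immunoblotting. Cells were washed in cold PBS and lysed in RIPA buffer with inhibitors for 30 min at 4° C., then spun at 13,000 rpm to clear. After BCA protein determination, lysates were heated at 99° C. for 5 min in Laemmli buffer, resolved on SDS-PAGE, imaged on a ChemiDoc MP with ECL substrate, and band intensities quantified.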

## CC(=O)c1nc(NC(=O)c2ccc(NCCOCCOCCOCCOCCOCCNC(=O)CN3CCN(c4ccc(Nc5ncc6c(C)c(C(C)=O)c(=O)n(C7CCCC7)c6n5)nc4)CC3)cc2C)sc1C [CPD-045, N-(4-Acetyl-5-methylthiazol-2-yl)-4-((1-(4-(6-((6-acetyl-8-cyclopentyl-5-methyl-7-oxo-7,8-dihydropyrido[2,3-d]pyrimidin-2-yl)amino)pyridin-3-yl)piperazin-1-yl)-2-oxo-6,9,12,15,18-pentaoxa-3-azaicosan-20-yl)amino)-2-methylbenzamide]
Cyclin D1
  CyclinD1 Degradation (200 nM): A (protein percentage degradation >=80%)
CDK4; Calu-1 cells, 200 nM, 16 hours
  inhibition at 0.2 µM: 50 to 80%

## Cc1nc(NC(=O)c2ccccc2NC(=O)CCOCCOCCOCCNC(=O)CN2CCN(c3ccc(Nc4ncc5cc(C(=O)N(C)C)n(C6CCCC6)c5n4)nc3)CC2)sc1C [CPD-296, 7-Cyclopentyl-2-((5-(4-(15-((2-((4,5-dimethylthiazol-2-yl)carbamoyl)phenyl)amino)-2,15-dioxo-6,9,12-trioxa-3-azapentadecyl)piperazin-1-yl)pyridin-2-yl)amino)-N,N-dimethyl-7H-pyrrolo[2,3-d]pyrimidine-6-carboxamide]
Cyclin D1; 10 μM
  CyclinD1 Degradation (10 μM): A (protein percentage degradation >= 80%)
CDK4; Calu-1 cells, 10 μM, 16 hours, read-out: CDK4 Degradation (10 μM)
  inhibition at 10 µM: 50 to 80%

## CC(=O)c1c(C)c2cnc(Nc3ccc(N4CCN(CC(=O)NCCOCCOCCC(=O)Nc5ccccc5C(=O)Nc5ccc(C)nc5)CC4)cn3)nc2n(C2CCCC2)c1=O [CPD-060, 2-(3-(2-(2-(2-(4-(6-((6-Acetyl-8-cyclopentyl-5-methyl-7-oxo-7,8-dihydropyrido[2,3-d]pyrimidin-2-yl)amino)pyridin-3-yl)piperazin-1-yl)acetamido)ethoxy)ethoxy)propanamido)-N-(6-methylpyridin-3-yl)benzamide]
Cyclin D1
  CyclinD1 Degradation (200 nM): A (protein percentage degradation >=80%)
CDK4; Calu-1 cells, 200 nM, 16 hours
  inhibition at 0.2 µM: 50 to 80%

## CC(=O)c1c(C)c2cnc(Nc3ccc(N4CCN(CC(=O)NCCCCCNc5cc(F)ccc5C(=O)Nc5ccc(N(C)C)nn5)CC4)cn3)nc2n(C2CCCC2)c1=O [CPD-372, 2-((5-(2-(4-(6-((6-Acetyl-8-cyclopentyl-5-methyl-7-oxo-7,8-dihydropyrido[2,3-d]pyrimidin-2-yl)amino)pyridin-3-yl)piperazin-1-yl)acetamido)pentyl)amino)-N-(6-(dimethylamino)pyridazin-3-yl)-4-fluorobenzamide]
Cyclin D1
  CyclinD1 Degradation (200 nM): A (protein percentage degradation >=80%)
CDK4; Calu-1 cells, 200 nM, 16 hours
  inhibition at 0.2 µM: 50 to 80%

## CC(=O)c1c(C)c2cnc(Nc3ccc(N4CCN(CC(=O)NCCOCCOCCOCCOCCOCCNc5ccc(CNc6nc(C)c(C)s6)c(C)c5)CC4)cn3)nc2n(C2CCCC2)c1=O [CPD-166, 2-(4-(6-((6-Acetyl-8-cyclopentyl-5-methyl-7-oxo-7,8-dihydropyrido[2,3-d]pyrimidin-2-yl)amino)pyridin-3-yl)piperazin-1-yl)-N-(17-((4-(((4,5-dimethylthiazol-2-yl)amino)methyl)-3-methylphenyl)amino)-3,6,9,12,15-pentaoxaheptadecyl)acetamide]
Cyclin D1
  CyclinD1 Degradation (200 nM): B (protein percentage degradation <80%, and >=50%)
CDK4; Calu-1 cells, 200 nM, 16 hours
  inhibition at 0.2 µM: 30 to 50%

## COC(=O)c1cnc(NC(=O)c2ccc(NCCOCCOCCOCCOCCOCCNC(=O)CN3CCN(c4ccc(Nc5ncc6c(C)c(C(C)=O)c(=O)n(C7CCCC7)c6n5)nc4)CC3)cc2C)s1 [CPD-032, Methyl 2-(4-((1-(4-(6-((6-acetyl-8-cyclopentyl-5-methyl-7-oxo-7,8-dihydropyrido[2,3-d]pyrimidin-2-yl)amino)pyridin-3-yl)piperazin-1-yl)-2-oxo-6,9,12,15,18-pentaoxa-3-azaicosan-20-yl)amino)-2-methylbenzamido)thiazole-5-carboxylate]
Cyclin D1
  CyclinD1 Degradation (200 nM): D (protein percentage degradation <30%)
CDK4; Calu-1 cells, 200 nM, 16 hours
  inhibition at 0.2 µM: < 30%

## CC(=O)c1c(C)c2cnc(Nc3ccc(N4CCN(CC(=O)NCCOCCOCCC(=O)Nc5cc(Br)ccc5C(=O)Nc5nc(C)c(C)s5)CC4)cn3)nc2n(C2CCCC2)c1=O [CPD-144, 2-(3-(2-(2-(2-(4-(6-((6-Acetyl-8-cyclopentyl-5-methyl-7-oxo-7,8-dihydropyrido[2,3-d]pyrimidin-2-yl)amino)pyridin-3-yl)piperazin-1-yl)acetamido)ethoxy)ethoxy)propanamido)-4-bromo-N-(4,5-dimethylthiazol-2-yl)benzamide]
Cyclin D1
  CyclinD1 Degradation (200 nM): A (protein percentage degradation >=80%)
CDK4; Calu-1 cells, 200 nM, 16 hours
  inhibition at 0.2 µM: 50 to 80%

## CC(=O)c1c(C)c2cnc(Nc3ccc(N4CCN(C(=O)CCOCCOCCOCCOCCOCCC(=O)Nc5ccccc5C(=O)Nc5nc(C)c(C)s5)CC4)cn3)nc2n(C2CCCC2)c1=O [CPD-163, 19-(4-(6-((6-Acetyl-8-cyclopentyl-5-methyl-7-oxo-7,8-dihydropyrido[2,3-d]pyrimidin-2-yl)amino)pyridin-3-yl)piperazin-1-yl)-N-(2-((4,5-dimethylthiazol-2-yl)carbamoyl)phenyl)-19-oxo-4,7,10,13,16-pentaoxanonadecanamide]
Cyclin D1
  CyclinD1 Degradation (200 nM): A (protein percentage degradation >=80%)
CDK4; Calu-1, 16 h
  inhibition at 0.2 µM: 50 to 80%

## CC(=O)c1c(C)c2cnc(Nc3ccc(N4CCN(CC(=O)NCCCCCCC(=O)Nc5ccccc5C(=O)Nc5nc(C)c(C)s5)CC4)cn3)nc2n(C2CCCC2)c1=O [CPD-169, 2-(7-(2-(4-(6-((6-Acetyl-8-cyclopentyl-5-methyl-7-oxo-7,8-dihydropyrido[2,3-d]pyrimidin-2-yl)amino)pyridin-3-yl)piperazin-1-yl)acetamido)heptanamido)-N-(4,5-dimethylthiazol-2-yl)benzamide]
Cyclin D1
  CyclinD1 Degradation (200 nM): D (protein percentage degradation <30%)
CDK4; Calu-1 cells, 200 nM, 16 hours
  inhibition at 0.2 µM: < 30%

## CC(=O)c1c(C)c2cnc(Nc3ccc(N4CCN(C(=O)CCOCCOCCOCCNc5ccc(C)c(C(=O)Nc6nc(C)c(C)s6)c5)CC4)cn3)nc2n(C2CCCC2)c1=O [CPD-111, 5-((2-(2-(2-(3-(4-(6-((6-Acetyl-8-cyclopentyl-5-methyl-7-oxo-7,8-dihydropyrido[2,3-d]pyrimidin-2-yl)amino)pyridin-3-yl)piperazin-1-yl)-3-oxopropoxy)ethoxy)ethoxy)ethyl)amino)-N-(4,5-dimethylthiazol-2-yl)-2-methylbenzamide]
Cyclin D1
  CyclinD1 Degradation (200 nM): D (protein percentage degradation <30%)
CDK4; Calu-1, 16 h
  inhibition at 0.2 µM: < 30%

## CC(=O)c1c(C)c2cnc(Nc3ccc(N4CCN(CC(=O)NCCCCCCNc5cccc(C(=O)Nc6nc(C)c(C)s6)c5C)CC4)cn3)nc2n(C2CCCC2)c1=O [CPD-101, 3-((6-(2-(4-(6-((6-Acetyl-8-cyclopentyl-5-methyl-7-oxo-7,8-dihydropyrido[2,3-d]pyrimidin-2-yl)amino)pyridin-3-yl)piperazin-1-yl)acetamido)hexyl)amino)-N-(4,5-dimethylthiazol-2-yl)-2-methylbenzamide]
Cyclin D1
  CyclinD1 Degradation (200 nM): A (protein percentage degradation >=80%)
CDK4; Calu-1 cells, 200 nM, 16 hours
  inhibition at 0.2 µM: 50 to 80%

## CC(=O)c1c(C)c2cnc(Nc3ccc(N4CCN(CC(=O)NCCOCCOCCC(=O)Nc5ccccc5C(=O)Nc5nc(C(C)C)c(C)s5)CC4)cn3)nc2n(C2CCCC2)c1=O [CPD-070, 2-(3-(2-(2-(2-(4-(6-((6-Acetyl-8-cyclopentyl-5-methyl-7-oxo-7,8-dihydropyrido[2,3-d]pyrimidin-2-yl)amino)pyridin-3-yl)piperazin-1-yl)acetamido)ethoxy)ethoxy)propanamido)-N-(4-isopropyl-5-methylthiazol-2-yl)benzamide]
Cyclin D1
  CyclinD1 Degradation (200 nM): A (protein percentage degradation >=80%)
CDK4; Calu-1 cells, 200 nM, 16 hours
  inhibition at 0.2 µM: > 80%
